This note sets out measurements from a melting point compilation (Tetko et al.; mined from patent text by program, amines drawn as free bases though some values may be those of a salt).

The melting point is the temperature of the solid-liquid transition.

With `COc1ccc2oc(C(=O)NCc3ccccc3)c(OC(C)C)c2c1`, the melting point lay in the range of 68 to 69 °C. To `CCCC(C)(O)C(=O)Nc1cc(Br)nc(OC)c1` (configuration not stated) belongs 122 °C; to `CSc1ccc(C(=O)Nc2cc(-c3c(-c4ccc(F)c(C)c4)nc4cccnn34)ccn2)cc1`, 191 to 192 °C; to `COc1ccc(CN(Cc2ccc(OC)cc2)c2nccc(-c3ccc(-c4ccc(N(c5ccccc5)c5ccccc5)cc4)cc3)n2)cc1`, 95 to 97 °C. Molecule `COc1cc(C(=O)Nc2c(Cl)cc3c(Br)n[nH]c3c2C(=O)NC(C)C)n(-c2ncccc2Cl)n1` displayed a melting point of 217 to 218 °C. The result for `CN(CCCN1C(=O)CSC1c1cc(C(C)(C)C)c(O)c(C(C)(C)C)c1)CCOc1ccc2c(c1)OCO2` (configuration not stated) reads 70 to 71 °C; that for `Cc1nc(C)c(C(=O)Nc2cccc(Oc3ccc4nc(NC(=O)C5CC5)cn4n3)c2)s1`, 249 °C; that for `COc1cc(CSc2ccc(O)cc2)cc(O)c1O`, 140 °C. Molecule `C=C(C)SC1C(NC(=O)COc2ccccc2)C(=O)N1C=O` (configuration not stated) came in with a melting point of 156 to 158 °C. The result for `COC(=O)c1cc(C)c(OCCNC(=O)C2Cc3ccccc3N2S(=O)(=O)c2ccc(-c3cccc(C(F)(F)F)c3)cc2)c(C)c1` (configuration not stated) reads 81 to 83 °C; that for `O=C(O)Cn1c(=O)c(=O)[nH]c2cc([N+](=O)[O-])c(Cl)cc21`, > 280 °C.

Molecule `CCOC(=O)C1=C(C)NC(O)(c2ccc([N+](=O)[O-])cc2)C(C(=O)OCC)C1c1cccc([N+](=O)[O-])c1` (configuration not stated) came in with a melting point of 196 to 197 °C. To `Cc1cc(C(=O)O)ccc1C#CCc1ccc2c(c1)C(C)(C)CCC2(C)C` belongs 196 to 197 °C; to `NC(=O)CCCCCNC(N)=O`, 208 °C. To `COC(=O)N(CC(=O)Nc1ccc(S(N)(=O)=O)cc1)c1ccccc1` belongs 196 to 199 °C; to `Cn1c(NC(=O)c2ccccc2)nc2ccccc2c1=O`, 185 to 187 °C. As to `COc1ccc2c(=O)n(S(=O)(=O)c3ccc(Cl)cc3)c(=O)[nH]c2c1`, the melting point lay in the range of 205 to 206 °C. The result for `CC(C)(C)C(=O)c1c[nH]c2ncc(-c3cccc(NC4CCCC4O)c3)nc12` (configuration not stated) reads 178 to 180 °C; that for `CC(NC(=O)Cc1cc(F)cc(F)c1)C(=O)NC1C(=O)N(C)C(c2ccccc2)c2ccccc21` (configuration not stated), 115 °C. The result for `CC(C)(C)c1ccc(CCOc2ncnc3nccnc23)cc1` reads 149 °C. On to `O=C(Cn1nnnc1-c1ccsc1)OCCCCCO`, for which the melting point lay within 39 to 42 °C. Molecule `CSc1c[nH]c2ncccc12` displayed a melting point of 115 to 116 °C.

Regarding `CCOC(=O)/C=C/c1ccc(N2CCC(=O)CC2)cc1`, the melting point is 96 to 98 °C. With `O=C(O)c1nc2n(n1)-c1cccnc1N(c1ccc(Cl)cc1)C2`, the melting point was 234 to 237 °C. Turning to `O=C(O)Cc1ccc(CNC(=O)C2Cc3ccccc3N2S(=O)(=O)c2ccc(-c3ccc(F)cc3Cl)cc2)cc1` (configuration not stated), the melting point was found to be 119 °C. To `[N-]=[N+]=NCc1ccc2nc[nH]c2c1` belongs 110 to 114 °C.

In the case of `CCOC(=O)/C=C/c1cnn(C)c1-c1cccs1`, the melting point was in the range of 73 to 74 °C. For the molecule `CN(C)c1ccc(C(N)=NNc2ccc([N+](=O)[O-])cc2)cc1`, the melting point stood at 174 °C. Turning to `C=CCC(C#N)(C#N)C(C)(C)c1cccc(Cl)c1`, the melting point turned out to be 84.3 °C. As for `O=C(O)C1Cc2ccccc2N1C(=O)CCS` (configuration not stated), the melting point is 140 to 142 °C. To `Cc1cc(-c2noc(C(F)(F)F)n2)cc(C)c1OCCCc1ccc(=O)[nH]c1` belongs 128 to 130 °C; to `CCC(=S)NC[C@H]1CN(c2ccc(N3CCN(C#N)CC3)c(F)c2)C(=O)O1`, 182 to 184 °C. For the molecule `COC(=O)C(O)C(CC(C)C)NC(=O)C(Cc1c[nH]cn1)NC(=O)C(CC(=O)NCCc1ccccc1)Cc1cccc2ccccc12` (mixture of isomers), the melting point is 82 to 87 °C.

`CCC(c1cc2c(-c3ccc(C(F)(F)F)n(C)c3=O)c(F)cc(Cl)c2o1)S(C)(=O)=O` (configuration not stated) gave a melting point of 146 to 148 °C. Consider `CCOC(=O)c1ccc(C(=O)CBr)cc1`, for which the melting point was 67 to 68.5 °C. In the case of `CCOC(=O)/C=C/C=C/C(=O)c1cc2c(cc1C)C(C)(C)CCC2(C)C`, the melting point lay within 101 to 102 °C.

Take `O=C(NCCCC1CCC2=C1CC=CC2)C(F)(F)F` (configuration not stated): the melting point is 61 to 62 °C. The result for `CCCCOc1cc(CC(=O)O)n(Cc2ccc(Cl)cc2Cl)n1` reads 105 to 108 °C; that for `O=C(Nc1ccc(CN2C(=O)[C@H]3CCC[C@H]3N(C(=O)CN3C(=O)c4ccccc4C3=O)c3ccccc32)cc1)c1ccccc1` (relative stereo), 252 to 255 °C; that for `CC1CC(=O)c2c(C(=O)Nc3cccnc3)c[nH]c2C1` (configuration not stated), 225 to 227 °C. `COc1ccc(CC2(C(=O)N[C@@H](Cc3ccc(NC(=O)c4c(Cl)cccc4Cl)cc3)C(=O)O)CCCCC2)cc1` showed a melting point of 136 to 140 °C. Turning to `OC(Cc1ccnc2ccccc12)C(Cl)(Cl)Cl` (configuration not stated), the melting point was in the range of 190 to 192 °C. The result for `N#Cc1cc2c(nc1N1CCCCCC1)CCCC2=O` reads 76 to 78 °C.

`COc1ccccc1C1CSc2ccccc2NC1=O` (configuration not stated) came in with a melting point of 219 °C. Turning to `NS(=O)(=O)c1cc(C(=O)O)cc([N+](=O)[O-])c1NC1CCCCC1`, the melting point was in the range of 185 to 186 °C. To `Cn1c(=O)c(C#N)c(N2CCN(C(=O)c3ccco3)CC2)c2cc(Cl)ccc21` belongs 228 °C; to `COc1ccc(CNC(=O)[C@@H](NC(=O)[C@H](NCc2ccc(OC)c(OC)c2)[C@H](O)[C@H](Cc2ccccc2)NC(=O)OC(C)(C)C)C(C)C)c(O)c1`, 144 °C. Consider `ClCCOc1cccc2[nH]ccc12`, for which the melting point was determined as 60 °C. The result for `[N-]=[N+]=NCC(=O)c1cn2c3c(cccc13)CCC2` reads 92 to 93 °C; that for `Cc1ccccc1OCCOS(N)(=O)=O`, 81.5 to 83 °C.

In turn, `Cn1cc(-c2ccccc2S(N)(=O)=O)cn1` had a melting point of 183 to 186 °C. To `NNC(=O)c1cc2cc(Cl)ccc2s1` belongs 90 to 91 °C; to `CCCCCCCCc1nc2c(N)nc3ccccc3c2n1CCOCc1ccccc1`, 110 to 111 °C. `O=C(NCCO)c1ccc(-c2nn(Cc3ccccc3)c3ccccc23)o1` showed a melting point of 119 to 127 °C. To `O=c1cc(-c2ccc(OCCOc3ccc(-c4cc(=O)c5c(O)cc(O)cc5o4)cc3)cc2)oc2cc(O)cc(O)c12` belongs 352 to 355 °C. To `CC(C)(C)c1cc(C2CC(=O)N(c3ccccc3)C2=O)cc(C(C)(C)C)c1O` (configuration not stated) belongs 204 °C; to `CS(=O)(=O)c1ccc(C2=C(c3ccc(-c4cccs4)cc3)C(=O)OC2)cc1`, 198 to 201 °C. To `CC(NC(N)=S)c1ccc(NS(C)(=O)=O)cc1` (configuration not stated) belongs 77 °C; to `CCCCCCCCCCCCCCCCCC(=O)OC1CC(C)(C)N(OC(C)=O)C(CC)(CC)C1` (configuration not stated), 41 to 44 °C.

For `O=C(Cl)C(Oc1cccc(C(F)(F)F)c1)c1ccc(Cl)cc1` (configuration not stated), the melting point lay in the range of 96 to 98 °C. The result for `CC(=O)OCC(=O)C1(O)C(C)CC2C3CC(C)C4=CC(=O)C=CC4(C)C3=CCC21C` (configuration not stated) reads 215 to 216 °C; that for `CC(=O)Oc1ccc(C(=O)Nc2cc([N+](=O)[O-])ccc2C)cc1`, 207 to 208 °C.

Regarding `CCOc1cc(NC(=O)C2=C(C(=O)N(CC)CC)CCCC2)ccc1Cl`, the melting point fell in the range of 98 to 100 °C. The result for `CCOc1ccc(C(F)(F)F)cc1-c1cccn2nc(Nc3ccc4c(c3)CCN(CCS(C)(=O)=O)CC4)nc12` reads 105 to 109 °C; that for `Cc1nc(N)c2nc(CO)n(CC(C)C)c2c1C`, 231 to 234 °C. The result for `CCCCCCCC(=O)NCCCCCCO` reads 77 to 78 °C; that for `CC(C)(C)OC(=O)N1CCC(c2nc3cc(-c4ccc(-c5nnn[nH]5)c(F)c4)ccc3o2)CC1`, 163 to 167 °C. For the molecule `CCc1nc(C)n(COCc2ccccc2)c1Sc1ccccc1`, the melting point lay within 156 to 159 °C. In turn, `CCC1(C)NC(=O)C(c2c(C)cc(C)cc2C)C1=O` (configuration not stated) had a melting point of 137 to 142 °C.

Regarding `C=Cc1c(C(=O)OC)nc(-c2ccc(Cl)cc2)c(F)c1N`, the melting point lay within 81 to 83 °C. To `Cc1ccc2c(c1)c(-c1ccc(F)cc1)c(C)n2C1=CCN(CCN2CCNC2=O)CC1` belongs 151 to 153 °C; to `COc1ccc2[nH]c(-c3ccccc3N)cc2c1`, 198 to 200 °C. As to `Cn1nc(N)nc1NCCCOc1cccc(CNCc2ccccc2)c1`, the melting point fell in the range of 90 to 91 °C.

Turning to `CCCc1nc2c(N)nc3cc(OCCN4CCCC4)ccc3c2s1`, the melting point is 124 to 127 °C. To `COc1ccc(N2CCN(c3c(C)c(C)c4c(c3C)CC(C)(CN)O4)CC2)cc1` (configuration not stated) belongs 134 to 137 °C. Molecule `CSc1ccccc1C1CCN(CCCCNC(=O)c2ccc(-c3ccc(C(F)(F)F)cc3)cc2)CC1` displayed a melting point of 191 to 192 °C.

Consider `CCOC(=O)c1nc2scc(COC(=O)c3ccc(CO)cc3)c2c(=O)[nH]1`, for which the melting point is 196 °C. The molecule `Cc1ccc(Cl)c(N)c1C#N` returned a melting point of 77 to 80 °C. To `CC(C)(C)C(=O)Nc1ncc(Cl)cc1C=O` belongs 169 to 171 °C; to `CC(C)(C)c1ccc2c(c1)C(=O)c1ccc(C(=O)O)cc1S2(=O)=O`, 259 to 262 °C; to `COC(=O)c1cc2c3cc(C)ccc3n(C)c2s1`, 152 to 155 °C. The result for `CC(C)(C)OC(=O)[C@@H](N)Cc1ccc(O)c(C(C)(C)C)c1` reads 43 to 52 °C; that for `O=C(O)c1sc(C(F)(F)F)cc1OCc1ccccc1`, 142 to 144 °C.

Regarding `CCCCNC(=S)N1CCc2[nH]cnc2C1`, the melting point was found to be 130 °C.

On to `CC(C)(C)NS(=O)(=O)c1cccc(NC(=O)c2cnn3c(C(F)(F)F)cc(-c4ccc(C(F)(F)F)cc4)nc23)c1`, for which the melting point was 232 °C.

Turning to `CSc1nc(=O)cc(N)n1-c1ccc(Cl)cc1`, the melting point was in the range of 180 to 182 °C.

For `CN1CCN(c2cccc(C(=O)N3CC=C(c4ccccc4F)CC3)n2)CC1`, the melting point amounted to 177 °C.
